# Results as given in patent US20260139017A1, “COMPOSITIONS AND METHODS USING REELIN IN ALZHEIMER'S DISEASE” (The General Hospital Corporation, priority 2022, published 2026).
# pKd: −log10 of the molar value. Entries after “also recorded” stand apart in the source; their conditions may differ.
# Assays:
# NRP1 = target: T1, NRP1 (Homo sapiens, UniProt O14786); assay: Bio-layer interferometry (BLI) of CTR-RELN-NRP-1 interactions; assay type: binding
# T1 construct: purchased R&D 3870-N1-025
# T1 sequence (O14786 22-644 isoform O14786-2 limits assumed): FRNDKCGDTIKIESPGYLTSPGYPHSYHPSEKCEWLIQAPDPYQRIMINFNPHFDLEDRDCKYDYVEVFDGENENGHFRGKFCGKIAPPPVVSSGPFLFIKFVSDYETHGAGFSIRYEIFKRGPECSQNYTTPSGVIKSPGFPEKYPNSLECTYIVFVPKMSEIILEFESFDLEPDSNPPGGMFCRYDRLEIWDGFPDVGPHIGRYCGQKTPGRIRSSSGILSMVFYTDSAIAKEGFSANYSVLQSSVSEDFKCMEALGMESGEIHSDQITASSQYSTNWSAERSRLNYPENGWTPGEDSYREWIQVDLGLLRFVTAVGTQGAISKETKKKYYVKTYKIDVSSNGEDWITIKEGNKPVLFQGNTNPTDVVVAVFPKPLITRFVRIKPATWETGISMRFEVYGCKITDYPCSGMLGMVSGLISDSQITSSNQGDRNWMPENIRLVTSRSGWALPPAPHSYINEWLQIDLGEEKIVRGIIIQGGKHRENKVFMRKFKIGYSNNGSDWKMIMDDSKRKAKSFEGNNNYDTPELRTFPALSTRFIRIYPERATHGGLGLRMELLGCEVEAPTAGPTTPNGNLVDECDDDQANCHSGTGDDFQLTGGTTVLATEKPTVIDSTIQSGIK
# Protocol: Bio-layer interferometry (BLI) was additionally used to assess NRP1-protein kinetics at 30° C. and 1000 rpm agitation. 1 mg/mL NRP1 (R&D 3870-N1-025) was biotinylated at a 1:2 molar ratio, desalted, and immobilized on the SA biosensor tip (Pall ForteBio) surface. This was followed by 1) 180 seconds baseline buffer diluent, 2) loading of the ligand (NRP1), 3) 180 seconds baseline buffer diluent, 4) 240 seconds association (analyte), and 5) 300 seconds disassociation in assay buffer. Assay buffer: SD Buffer (pH7.4 PBS, 0.05% tween20, 0.01% BSA).
# The experimental data were fit with the 1:1 binding model and analyzed with global fitting using Octet Data Analysis software to calculate KD.
# Bio-layer interferometry (BLI) was used to assess NRP1-protein kinetics at 30° C. and 1000 rpm agitation using previously published methods. 1 mg/mL NRP1 (R&D 3870-N1-025) was biotinylated at a 1:2 molar ratio, desalted, and immobilized on the SA biosensor tip (Pall ForteBio) surface. This was followed by 1) 180 seconds baseline buffer diluent, 2) loading of the ligand (NRP1), 3) 180 seconds baseline buffer diluent, 4) 240 seconds association (analyte), and 5) 300 seconds disassociation in assay buffer. Assay buffer: SD Buffer (pH7.4 PBS, 0.05% tween20, 0.01% BSA).
# [1] = Heparin HPLC, peak retention time in KCl elution; assay type: binding; conditions: isocratic 1M KCl elution, long and short peptides
# Protocol: […] 50 μl of 0.3 μg/μL uncleaved or cleaved WT Reelin peptide was used at 0.3 ml/min in 0.15MKCl, 10 mM PBS. 0-13.5 min: 0.15M KCl to load sample, 13.5-14.5 min: ramp to 0.5M KCl, 14.5-24.5 min: 0.5-1M KCl gradient (ramp), 24.5-45 min: 1M KCl (isocratic elution), 45-55 min: 1M KCl at 0.6 ml/min (wash), 55.0-56.0 min: ramp to 0.15M KCl at 0.3 ml/min, 56.0-59.0 min: 0.15M KCl (reset column). Fluorescence Intensities were measured at an excitation wavelength of 260 nm and emission wavelength of 290 nm, based on fluorescence properties of aromatic amino acids. To assess fluorescence properties of peptides, 15 ul of ˜0.6 ug/mL of peptide was diluted in 500 μL of 0.15MKCl, 10 mM PBS, and peak excitation and emission of peptides was calculated from the 2D graphical data.
# The column chromatography method was adapted from previous research from the laboratory (2). Based on the column chromatography data, the initial protocol used a NaCl gradient from 0-1 M and a 5M salt wash to reset the HPLC column. However, the high salt gradient was corrosive to the HPLC machine parts. Therefore, KCl was considered because the […]. A lower molar concentration of a buffer with KCl could be used to disrupt heparin—Reelin CTR interactions compared to NaCl to help keep the HPLC pumps free of residual salts and potential corrosion. Since a lower concentration of salt was used, the amount of time needed at an […] hold of 1M KCl was extended until the peptide signal could not be detected before the column was equilibrated for the next sample.
# [2] = Surface plasmon resonance (SPR) binding of CTR-RELN peptides to heparin-coated chip; conditions: SPR kinetic constants
# Protocol: Surface plasmon resonance assay (SPR) was used for performing binding kinetics using a Biacore 3000 Instrument (GE Healthcare) at 25° C. following previously published protocols (7 24) as fee-for-service by Precision Antibody (Maryland, USA). Biotin-labeled heparin (B9806, Sigma Aldrich) was covalently linked to streptavidin-coated chip and unoccupied sites were blocked with biocytin. Antigen was flowed over the chip using a range of single analyte concentrations prepared in DPBS buffer and using a flow rate of 30 μL/min. Binding of antigen to the ligand was monitored in real time to obtain on (ka) and off (kd) rates. The equilibrium constant (KD) was calculated from the observed ka and kd. Accuracy of the SPR analysis was determined via Chi square (χ2) analysis as described in the statistical analysis section. We included in the analyses the WT and H3447R peptides and peptides with the hypothetical H3447D change ([…])(SEQ ID NO:57) and the H3447K change ([…])(SEQ ID NO:58), also produced and purified by Innovagen (Sweden).
# Surface plasmon resonance assay (SPR) was used for performing binding kinetics using a Biacore 3000 Instrument (GE Healthcare) at 25° C. following previously published protocols 34 24 fee-for-service by Precision Antibody (Maryland, USA). Heparin was covalently linked to streptavidin coated chip at 13 response units (RU) concentration and unoccupied sites were blocked with biocytin. Antigen was flowed over the chip using a range of single analyte concentrations prepared in DPBS buffer and using a flow rate of 30 μL/min. Binding of antigen to the ligand was monitored in real time to obtain on (ka) and off (kd) rates. The equilibrium constant (KD) was calculated from the observed ka and kd. Accuracy of the SPR analysis was determined via Chi square (2) analysis as described in the statistical analysis section.
# Aβ42 = target: T2, Aβ42 (Homo sapiens, UniProt P05067); assay: Thioflavin T (ThT) Aβ aggregation assay; assay type: biochemical; conditions: Aβ42 55 μM, 10 μM peptide; vs Aβ alone
# T2 construct: SensoLyte ThT O-Amyloid (1-42) Aggregation kit
# Protocol: Therefore, the ThT assay can be used to quantify AB aggregation using previously developed methods (40).
# We incubated CTR-RELN with Aβ and monitored aggregation using a ThioflavinT fluorescence assay normalized to the maximum ThT emission of Aβ only. We also assayed Aβ in the presence of morin, a known inhibitor (41), as a […]. Long and short WT and H3447R RELN CTR peptides were included to better understand the potential role of the H3447R mutation in amyloid pathology (FIGS. 14 and 15. Negative controls included long and short RELN CTR peptides with neutrally charged AAs (histidines) in place of basic AAs in the alpha- and beta-GAG binding sites.
# A Thioflavin T (ThT) assay was also performed using synthetic Reelin peptides to assess the differential effects of these proteins on Aβ42 aggregation in vitro using Thioflavin T (SensoLyte ThT O-Amyloid (1-42) Aggregation kit, catalog no. ΔS-72214). Aβ42 was added to a final concentration of 55 μM in solutions of 10 μM of Reelin peptide variants in a transparent, no-binding 96-well plate. Samples were then mixed with 2 mM Thioflavin T dye and fluorescence was read at excitation wavelength/emission wavelength (Ex/Em)=440/484 nm at intermittent time intervals over 2 h. The plate was kept at 37° C. with 15 s shaking between reads. […] In general, it appears that the RELN Cterm domain is highly unstructured. […] If the mini-RELN includes the C-term domain only without a receptor binding domain then the protection will not involve signaling, but will still involve direct interactions with tau. If the mini-RELN includes the C-term domain and the receptor binding domain, it will have at least two protective mechanisms, namely RELN signaling and direct interactions with tau.
# APOER2 = target: T3, APOER2 (Homo sapiens, UniProt Q14114); assay: ELISA cell-free binding of RELN variants to ApoEr2
# T3 construct: purchased OnGene (so in the source)
# T3 sequence (Q14114 33-963): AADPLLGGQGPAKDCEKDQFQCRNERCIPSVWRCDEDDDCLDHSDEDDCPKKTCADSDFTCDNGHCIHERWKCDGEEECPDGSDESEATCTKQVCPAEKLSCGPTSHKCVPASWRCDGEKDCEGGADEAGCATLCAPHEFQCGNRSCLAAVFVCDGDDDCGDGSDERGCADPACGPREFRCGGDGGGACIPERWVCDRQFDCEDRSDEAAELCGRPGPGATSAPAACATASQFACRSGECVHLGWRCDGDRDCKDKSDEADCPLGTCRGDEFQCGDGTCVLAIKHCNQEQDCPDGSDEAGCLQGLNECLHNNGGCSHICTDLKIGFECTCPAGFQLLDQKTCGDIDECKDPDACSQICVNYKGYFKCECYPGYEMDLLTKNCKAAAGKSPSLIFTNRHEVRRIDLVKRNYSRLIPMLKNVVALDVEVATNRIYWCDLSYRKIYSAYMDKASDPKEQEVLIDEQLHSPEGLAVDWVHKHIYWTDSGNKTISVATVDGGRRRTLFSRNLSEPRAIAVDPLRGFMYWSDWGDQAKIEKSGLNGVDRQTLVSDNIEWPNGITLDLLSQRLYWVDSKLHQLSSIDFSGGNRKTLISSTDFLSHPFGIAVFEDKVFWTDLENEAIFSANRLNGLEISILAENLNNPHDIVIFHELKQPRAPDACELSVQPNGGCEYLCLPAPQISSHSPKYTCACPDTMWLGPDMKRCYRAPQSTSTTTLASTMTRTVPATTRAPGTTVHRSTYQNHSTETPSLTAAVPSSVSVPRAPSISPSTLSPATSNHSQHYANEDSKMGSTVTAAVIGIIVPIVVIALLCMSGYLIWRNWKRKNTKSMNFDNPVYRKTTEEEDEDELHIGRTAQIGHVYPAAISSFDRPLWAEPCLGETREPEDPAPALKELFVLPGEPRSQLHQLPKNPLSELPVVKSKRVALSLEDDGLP
# Protocol: (§1) Enzyme-linked immunosorbent assay (ELISA) was used to quantify changes in binding of RELN variants (media-derived full-length or CTR-RELN) to either VLDLr or ApoEr2 following an optimized version of a previously published protocol (6). Briefly, ELISA strips (DY008, R&D Systems) were coated with one ng/μL (100 μL/well) of VLDLr (8444-VL, R&D) or ApoEr2 (TP320903, OnGene) receptors diluted in 25 mM Tris HCl, 140 mM NaCl, […], two mM CaCl2), pH 7.4 (TBS-C buffer). After 18 h at four ° C. incubation, plates were blocked one h with three % BSA (22070008-6, Bioworld), 0.05% Tween-20 (Sigma Aldrich) TBS-C buffer. We assessed binding via incubation with 100 μL/well of serial dilutions of recombinant RELN protein (Ser1221-Gln2666, 8546-MR-050, R&D) or RELN variants in TBS-C buffer for one hour at room temperature. For detection, we used goat anti-mouse RELN primary antibody (LS-C793521-100, LS-Bio, 1:2,000, 100 μL/well) as primary antibody for one h at R.T. and (1:10,000; 100 μL/well, donkey anti-goat IgG H&L, HRP, ab6885, Abcam) as secondary antibody for 30 min. at R.T. Between each of the previous steps, plates were washed four times with TBS-C buffer (200 μL/well). Plates were washed three times prior to initiating the colorimetric reaction (DY008, R&D Systems). Stop solution (50 μL/well, DY008, R&D Systems) was added upon five min. incubation and the absorbance of the samples was measured at 450 nm using the Synergy 2 microplate reader (BioTek Instruments). Processing and analysis of the data was done using Gen5 1.11 software and GraphPad Prism, respectively.
# VLDLr = target: T4, VLDLr (Homo sapiens, UniProt P98155); assay: ELISA cell-free binding of RELN variants to VLDLr
# T4 construct: purchased R&D 8444-VL
# Protocol: as §1
# T2 sequence (P05067 672-713 limits assumed): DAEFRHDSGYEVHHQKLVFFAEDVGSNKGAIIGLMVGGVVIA
Substance,peak retention time on heparin HPLC [1],"heparin affinity/interaction relative to WT, in words [2]",Aβ aggregation (ThT fluorescence) (Aβ42),further results
"Vascular endothelial growth factor [VEGF, reference compound]",–,–,–,"ka (NRP1; immobilized biotinylated NRP1): 272000 M⁻¹ s⁻¹; kd (NRP1; immobilized biotinylated NRP1): 0.0015 s⁻¹; pKd (NRP1; immobilized biotinylated NRP1, 30° C., 1:1 model): 8.26"
RKQNYMMNFSRQHGLRKFYNRRRRSLRRYP [H3447K long],increased later peak retention times,minimal effects,similarly decrease aggregation,–
RKQNYMMNFSRQHGLRDFYNRRRRSLRRYP [H3447D long],significantly less interaction; also recorded: earlier peak retention time,reduced heparin interactions,similarly decrease aggregation,–
"RELN WT: full-length murine recombinant RELN, wild type",–,–,–,binding to APOER2 (APOER2): did not differ; binding to VLDLr (VLDLr): did not differ
